Results published in US20260207535A1, “CRIBLAGE INHIBITEURS USP8” (COMMISSARIAT A L'ENERGIE ATOMIQUE ET AUX ENERGIES …, priority 2022, published 2026).

Test system: AtT-20 pituitary cells
Assay: Inhibition of ACTH secretion in pituitary cells (ACTH EIA on supernatant)
Assay type: cell-based, mouse
Method: ACTH release (percent comparison to DMSO control). Briefly, 12,500 AtT-20 cells per well were seeded in a 96-well plate. After 24 hours exposure, cells were treated with each compound at the indicated final concentration, or with DMSO alone (control condition compound solvent) or with corticotropin releasing factor (indicated CRF) at 100 nM. After a 24-hour treatment, cell supernatants were collected and stored at −80° C., prior to quantification of ACTH concentration using ACTH chemiluminescent EIA kit (Phoenix Pharmaceuticals, Inc.). Determination of ACTH concentrations was based on the best-fitting ACTH standard curve and P values were calculated using one-way ANOVA, using Prism 9 software (GraphPad Software, Inc.) ns (P=0.12). **P<0.002. ***P<0.001. All compounds were tested in technical triplicates. One representative experiment out of three is presented.
FIG. 4: illustrates a decrease of ACTH secretion by AtT-20 cells after 24-hour treatment of halogenated salicylanilides. 12,500 AtT-20 cells per well were seeded in a 96-well plate. […] After a 24-hour treatment, cell supernatants were collected and stored at −80° C., prior to quantification of ACTH concentration using ACTH chemiluminescent EIA kit (Phoenix Pharmaceuticals, Inc.). Determination of ACTH concentrations was based on the best-fitting ACTH standard curve and P values were calculated by ordinary one-way ANOVA using Prism 6 software (GraphPad Software, Inc), ns (not significant), **** P<0.0001. Compounds were tested in technical triplicates.
12,500 AtT-20 cells per well were seeded in a 96-well plate. After 24 hours, cells were treated with compounds (corresponding chemical formula are indicated in Table 1) at 25 μM final concentration, or with DMSO alone (compound solvent). After a 24-hour treatment, cell supernatants were collected and stored at −80° C., prior to quantification of ACTH concentration using ACTH chemiluminescent EIA kit (Phoenix Pharmaceuticals, Inc.). Determination of ACTH concentrations was based on the best-fitting ACTH standard curve and P values were calculated by ordinary one-way ANOVA using Prism 6 software (GraphPad Software, Inc), ns (not significant), *P<0.05, ***P<0,0001. Compounds were tested in technical triplicates.
Mouse AtT-20 pituitary cell line were used as a powerful and well-characterized model to monitor ACTH secretion using an enzyme immunoassay (EIA) kit.
Mouse AtT-20 cells were obtained from the American Type Culture Collection and maintained on DMEM containing 10% fetal bovine serum, 100 μg/mL streptomycin and 100 U/mL penicillin at 37° C. with 5% CO2 after recovery from long-term storage on liquid nitrogen-vapor phase.
The ACTH secretion levels of AtT-20 cell culture was monitored on the supernatant of AtT-20 cells treated or not by increasing doses of compounds belonging to the family of halogenated salicylanilides chemicals.
1.25×10^4 AtT20 cells were seeded on polylysine-coated 96-well culture vessels on 150 μL of complete medium. After 24 hours, cells were treated with stock compounds to a final DMSO concentration of 0.5%. After 24 hours of treatment, cell culture supernatant was collected, cleared for 10 min at 1000×g at 4° C., diluted or not in assay buffer (Phoenix Peptide ACTH EIA EK-001-21) and frozen at −80° C. for subsequent processing according to the instructions of the kit's manufacturer.

Cc1cc(C(C#N)c2ccc(Cl)cc2)c(Cl)cc1NC(=O)c1cc(I)cc(I)c1O (centres unmarked) [Closantel, reference compound]
reduction in ACTH release (5.62 μM, compared to control): 20%
inhibition of ACTH at 25 μM, in words (FIG. 4, FIG. 5) (25 μM, 24-hour treatment): significant inhibition
ACTH secretion reduction (30 μM, compared to control conditions): 60%
activity at 25 µM (Mus musculus, AtT20, 25 μM, 24-hour treatment, AtT-20 supernatant, read-out: ACTH secretion % of control (DMSO) at 25 μM): 65%
dose-dependent inhibition of ACTH (FIG. 3) (increasing concentrations, 24-hour treatment): significant dose-dependent inhibition
